ChEMBL document CHEMBL1148502, “Carbonic anhydrase inhibitors: inhibition of the cytosolic human isozyme VII with anions” (Bioorg Med Chem Lett, 2006)
Several values for one entry are separate records, joined by “and”; a condition that tells them apart may be missing. Equal entries are not always repeated.

Tests used:
Carbonic anhydrase 7 = Carbonic anhydrase 7 (Homo sapiens, UniProt P43166)
Description: Inhibition of human recombinant CA7

[1] = Selectivity for human CA7 over murine CA13
Homo sapiens [2] = species: Homo sapiens; experiment: Selectivity for human CA7 over human CA2
Homo sapiens [3] = species: Homo sapiens; experiment: Selectivity for human CA7 over human CA1

Chain of Carbonic anhydrase 7 (P43166 whole entry): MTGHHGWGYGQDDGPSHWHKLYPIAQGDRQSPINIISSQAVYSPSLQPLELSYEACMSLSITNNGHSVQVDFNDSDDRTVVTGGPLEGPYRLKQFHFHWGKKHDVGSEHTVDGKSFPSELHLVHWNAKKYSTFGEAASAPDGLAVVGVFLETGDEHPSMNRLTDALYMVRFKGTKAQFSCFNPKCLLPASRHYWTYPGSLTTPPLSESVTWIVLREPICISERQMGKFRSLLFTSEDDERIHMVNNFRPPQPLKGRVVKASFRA

| SMILES | Ki (Carbonic anhydrase 7) | further results |
| --- | --- | --- |
| S [HYDROGEN SULFIDE] | 1240 µM |  |
| Cl [HYDROCHLORIC ACID] | 1840 µM |  |
| N#CO [CYANATE] | 15200 µM |  |
| F [FLUORIDE ION] | 1240 µM |  |
| Br [BROMIDE] | 1060 µM |  |
| NS(=O)(=O)O [SULFAMATE] | 9.5 µM |  |
| I [IODIDE] | 250 µM |  |
| O=S(=O)(O)O [SULFURIC ACID] | 1380 µM |  |
| O=NO [NITROUS ACID] | 1780 µM |  |
| O=C(O)O [BICARBONATE] | 270 µM and 160 µM |  |
| O=S(O)O [SULFUROUS ACID] | 7300 µM |  |
| N#CS [THIOCYANIC ACID] | 170 µM |  |
| OB(O)c1ccccc1 [PHENYLBORONIC ACID] | 8.3 µM | Selectivity ratio [1]: 343; Selectivity ratio (Homo sapiens [2]): 2780; Selectivity ratio (Homo sapiens [3]): 7060 |
| O=[N+]([O-])O [NITRIC ACID] | 190 µM |  |
